Results from patent US10420772B2, “Animal and human anti-trypanosomonal and anti-leishmania agents” (Celgene Corporation, priority 2016, dated 2019).

Legend:
[1] = tested on: IL3000 T. congolense (drug sensitive) strain; assay: In vitro Alamar Blue 72 hrs drug sensitivity assay for T. congolense; assay type: cell-based; details: Trypanosoma congolense, IL3000 T. congolense bloodstream form, read-out: T. congo Act.
Procedure: In Vitro Alamar Blue 72 Hrs Drug Sensitivity Assay for T. Congolense. Compounds were tested in vitro for chemotherapeutic efficacy against the IL3000 T. congolense (drug sensitive) strain using an Alamar Blue assay. Test compounds were prepared as 10 mg/mL DMSO stocks for each assay run. Compounds were assayed in at least three separate, independent test runs and an 11-point dilution curve was used to determine the IC50 values. Bloodstream form trypanosomes were supported in HMI media containing 20% bovine serum and were incubated with test compounds for 69 hrs at 34° C. in a humidified atmosphere containing 5% CO2. Thereafter, 10 μL of Resazurin dye (12.5 mg in 100 mL of phosphate buffered saline, Sigma-Aldrich, Buchs, Switzerland) were added for an additional 3 hrs. Plates were then read using a fluorescent plate reader (Spectramax, Gemini XS, Bucher Biotec, Basel, Switzerland) using an excitation wavelength of 536 nm and an emission wavelength of 588 nm. Data points were averaged to generate sigmoidal dose-response curves and IC50 values were determined using Softmax Pro 5.2 software.

[2] = tested on: STIB 719/ILRAD 560 T. vivax (drug sensitive) strain; assay: Ex vivo Alamar Blue 48 hrs drug sensitivity assay for T. vivax; assay type: cell-based; details: Trypanosoma vivax, STIB719; STIB 719/ILRAD 560 T. vivax bloodstream form, ex vivo, Alamar Blue, 48 hrs; read-out: T. vivax Act.
Procedure: Ex vivo Alamar Blue48 hrs drug sensitivity assay for T. vivax. Compounds were tested ex vivo for chemotherapeutic efficacy against the STIB 719/ILRAD 560 T. vivax (drug sensitive) strain, using an Alamar Blue assay. Test compounds were prepared as 10 mg/mL DMSO stocks for each assay run. Compounds were assayed in at least three separate, independent test runs and an 11-point dilution curve was used to determine the IC50 values. Bloodstream form trypanosomes were propagated and harvested from a highly parasitaemic mouse (via cardiac puncture) and were incubated with test compounds for 45 hrs at 37° C. in a humidified atmosphere containing 5% CO2, supported in HMI media containing 20% bovine serum. Thereafter, 10 μL of Resazurin dye (12.5 mg in 100 mL of phosphate buffered saline, Sigma-Aldrich, Buchs, Switzerland) were added for an additional 3 hrs. Plates were then read using a fluorescent plate reader (Spectramax, Gemini XS, Bucher Biotec, Basel, Switzerland) using an excitation wavelength of 536 nm and an emission wavelength of 588 nm. Data points were averaged to generate sigmoidal dose-response curves and IC50 values were determined using Softmax Pro 5.2 software.

SMILES | IC50 [1] [nM] | IC50 [2] [nM]
CC(C)(C)Nc1ncc2nc(Nc3cccc(C(F)(F)F)c3)n([C@H]3CC[C@H](CN)CC3)c2n1 [A-17, 9-((1r,4r)-4-(aminomethyl)cyclohexyl)-N2-tert-butyl-N8-(3-(trifluoromethyl)phenyl)-9H-purine-2,8-diamine] | < 150 | < 150
CC(C)(C)Nc1ncc2nc(Nc3cc(Cl)cc(Cl)c3)n([C@H]3CC[C@@H](CN)CC3)c2n1 [A-48, 9-((1s,4s)-4-(aminomethyl)cyclohexyl)-N2-tert-butyl-N8-(3,5-dichlorophenyl)-9H-purine-2,8-diamine] | 150 to 350 | 350 to 500
CC(C)(C)Nc1ncc2nc(Nc3cccc(C(F)(F)F)c3)n([C@H]3CC[C@@H](N)CC3)c2n1 [A-29, 9-((1s,4s)-4-aminocyclohexyl)-N2-tert-butyl-N8-(3-(trifluoromethyl)phenyl)-9H-purine-2,8-diamine] | < 150 | < 150
CC1(Nc2ncc3nc(Nc4cccc(Cl)c4)n([C@H]4CC[C@H](CO)CC4)c3n2)CCOCC1 [A-26, ((1r,4r)-4-(8-(3-chlorophenylamino)-2-(4-methyltetrahydro-2H-pyran-4-ylamino)-9H-purin-9-yl)cyclohexyl)methanol] | 150 to 350 | < 150
CC1(Nc2ncc3nc(Nc4cncc(Cl)c4)n([C@H]4CC[C@@H](CN)CC4)c3n2)CCOCC1 [A-33, 9-((1s,4s)-4-(aminomethyl)cyclohexyl)-N8-(5-chloropyridin-3-yl)-N2-(4-methyltetrahydro-2H-pyran-4-yl)-9H-purine-2,8-diamine] | 150 to 350 | < 150
CN(c1ncc2nc(Nc3cccc(Cl)c3)n([C@H]3CC[C@@H](CN)CC3)c2n1)C1CCOCC1 [B-5, 9-((1s,4s)-4-(aminomethyl)cyclohexyl)-N8-(3-chlorophenyl)-N2-methyl-N2-(tetrahydro-2H-pyran-4-yl)-9H-purine-2,8-diamine] | 350 to 500 | < 150
CC(C)(C)Nc1ncc2nc(Nc3cc(Cl)cc(C(F)(F)F)c3)n(C3CCC(N)CC3)c2n1 (stereo not drawn) [A-53, 9-((1r,4r)-4-aminocyclohexyl)-N2-tert-butyl-N8-(3-chloro-5-(trifluoromethyl)phenyl)-9H-purine-2,8-diamine] | 150 to 350 | 150 to 350
CC1(Nc2ncc3nc(Nc4cccc(Cl)c4)n(-c4ccc(CN)cc4)c3n2)CCOCC1 [A-32, 9-(4-(aminomethyl)phenyl)-N8-(3-chlorophenyl)-N2-(4-methyltetrahydro-2H-pyran-4-yl)-9H-purine-2,8-diamine] | 150 to 350 | < 150
CC(C)(CO)Nc1ncc2nc(Nc3cccc(Cl)c3)n(C3CCC(CN)CC3)c2n1 (stereo not drawn) [A-54, 2-(9-((1s,4s)-4-(aminomethyl)cyclohexyl)-8-(3-chlorophenylamino)-9H-purin-2-ylamino)-2-methylpropan-1-ol] | 150 to 350 | < 150
CC(C)(C)Nc1ncc2nc(Nc3cccc(C#N)c3)n(C3CCC(N)CC3)c2n1 (stereo not drawn) [A-52, 3-(9-((1r,4r)-4-aminocyclohexyl)-2-(tert-butylamino)-9H-purin-8-ylamino)benzonitrile] | 350 to 500 | < 150
CC1(Nc2ncc3nc(Nc4cccc(Cl)c4)n(C4CCC(O)CC4)c3n2)CCCC1 (stereo not drawn) [A-10, (1s,4s)-4-(8-(3-chlorophenylamino)-2-(1-methylcyclopentylamino)-9H-purin-9-yl)cyclohexanol] | 350 to 500 | 350 to 500
NC[C@H]1CC[C@@H](n2c(Nc3cccc(Cl)c3)nc3cnc(NC4CCOCC4)nc32)CC1 [B-1, 9-((1s,4s)-4-(aminomethyl)cyclohexyl)-N8-(3-chlorophenyl)-N2-(tetrahydro-2H-pyran-4-yl)-9H-purine-2,8-diamine] | 150 to 350 | 350 to 500
NCC1CCC(n2c(Nc3cc(C(F)(F)F)ccc3F)nc3cnc(N4CCCC4)nc32)CC1 (stereo not drawn) [B-15, 9-((1s,4s)-4-(aminomethyl)cyclohexyl)-N-(2-fluoro-5-(trifluoromethyl)phenyl)-2-(pyrrolidin-1-yl)-9H-purin-8-amine] | 150 to 350 | < 150
CC1(Nc2ncc3nc(Nc4cccc(Cl)c4)n([C@H]4CC[C@@H](N)CC4)c3n2)CCOCC1 [A-27, 9-((1s,4s)-4-aminocyclohexyl)-N8-(3-chlorophenyl)-N2-(4-methyltetrahydro-2H-pyran-4-yl)-9H-purine-2,8-diamine] | < 150 | < 150
CN(C)c1ncc2nc(Nc3cccc(Cl)c3)n(C3CCC(CN)CC3)c2n1 (stereo not drawn) [B-7, 9-((1s,4s)-4-(aminomethyl)cyclohexyl)-N8-(3-chlorophenyl)-N2,N2-dimethyl-9H-purine-2,8-diamine] | 350 to 500 | < 150
CC1(Nc2ncc3nc(Nc4ccc(C(F)(F)F)cc4)n(C4CCC(CN)CC4)c3n2)CCCC1 (stereo not drawn) [A-16, 9-((1s,4s)-4-(aminomethyl)cyclohexyl)-N2-(1-methylcyclopentyl)-N8-(4-(trifluoromethyl)phenyl)-9H-purine-2,8-diamine] | 350 to 500 | 350 to 500
CC1(Nc2ncc3nc(Nc4cccc(Cl)c4)n(C4CC(N)C4)c3n2)CCOCC1 (stereo not drawn) [A-35, 9-(3-aminocyclobutyl)-N8-(3-chlorophenyl)-N2-(4-methyltetrahydro-2H-pyran-4-yl)-9H-purine-2,8-diamine] | < 150 | < 150
NCC1CCC(n2c(Nc3cccc(Cl)c3)nc3cnc(NCC(F)(F)F)nc32)CC1 (stereo not drawn) [B-10, 9-((1s,4s)-4-(aminomethyl)cyclohexyl)-N8-(3-chlorophenyl)-N2-(2,2,2-trifluoroethyl)-9H-purine-2,8-diamine] | 350 to 500 | < 150
CC1(Nc2ncc3nc(Nc4cccc(Cl)c4)n([C@@H]4CCC[C@H](CN)C4)c3n2)CCOCC1 [A-20, 9-((1R,3S)-3-(aminomethyl)cyclohexyl)-N8-(3-chlorophenyl)-N2-(4-methyltetrahydro-2H-pyran-4-yl)-9H-purine-2,8-diamine] | 350 to 500 | < 150
CC1(Nc2ncc3nc(Nc4cc(C(F)(F)F)ccc4F)n(C4CCC(CN)CC4)c3n2)CCC1 (stereo not drawn) [A-61, 9-((1s,4s)-4-(aminomethyl)cyclohexyl)-N8-(2-fluoro-5-(trifluoromethyl)phenyl)-N2-(1-methylcyclobutyl)-9H-purine-2,8-diamine] | 150 to 350 | < 150
CC1(Nc2ncc3nc(Nc4ccc(C(F)(F)F)cc4)n([C@H]4CC[C@@H](CN)CC4)c3n2)CCOCC1 [A-31, 9-((1s,4s)-4-(aminomethyl)cyclohexyl)-N2-(4-methyltetrahydro-2H-pyran-4-yl)-N8-(4-(trifluoromethyl)phenyl)-9H-purine-2,8-diamine] | 150 to 350 | < 150
CC(=O)NC1CCC(n2c(Nc3cccc(Cl)c3)nc3cnc(NC4(C)CCOCC4)nc32)CC1 (stereo not drawn) [A-25, N-((1s,4s)-4-(8-(3-chlorophenylamino)-2-(4-methyltetrahydro-2H-pyran-4-ylamino)-9H-purin-9-yl)cyclohexyl)acetamide] | 350 to 500 | < 150
CC1(Nc2ncc3nc(Nc4cc(C(F)(F)F)ccc4F)n([C@H]4CC[C@@H](CN)CC4)c3n2)CCOCC1 [A-42, 9-((1s,4s)-4-(aminomethyl)cyclohexyl)-N8-(2-fluoro-5-(trifluoromethyl)phenyl)-N2-(4-methyltetrahydro-2H-pyran-4-yl)-9H-purine-2,8-diamine] | < 150 | < 150
CC1(Nc2ncc3nc(Nc4cccc(Cl)c4)n([C@H]4CC[C@@H](CN)CC4)c3n2)CCC1 [A-2, 9-((1s,4s)-4-(aminomethyl)cyclohexyl)-N8-(3-chlorophenyl)-N2-(1-methylcyclobutyl)-9H-purine-2,8-diamine] | < 150 | < 150
CC1(Nc2ncc3nc(Nc4cccc(C(F)(F)F)n4)n([C@H]4CC[C@@H](CN)CC4)c3n2)CCOCC1 [A-45, 9-((1s,4s)-4-(aminomethyl)cyclohexyl)-N2-(4-methyltetrahydro-2H-pyran-4-yl)-N8-(6-(trifluoromethyl)pyridin-2-yl)-9H-purine-2,8-diamine] | 150 to 350 | 150 to 350
CNc1ncc2nc(Nc3cccc(Cl)c3)n(C3CCC(CN)CC3)c2n1 (stereo not drawn) [B-9, 9-((1s,4s)-4-(aminomethyl)cyclohexyl)-N8-(3-chlorophenyl)-N2-methyl-9H-purine-2,8-diamine] | 350 to 500 | < 150
CC1(Nc2ncc3nc(Nc4cccc(Cl)c4)n([C@H]4CC[C@@H](CN5CCOCC5)CC4)c3n2)CCOCC1 [A-41, N8-(3-chlorophenyl)-N2-(4-methyltetrahydro-2H-pyran-4-yl)-9-((1s,4s)-4-(morpholinomethyl)cyclohexyl)-9H-purine-2,8-diamine] | < 150 | 350 to 500
